Structures are written as SMILES. Some results are limits rather than exact numbers.

One assay addresses T1, p300 (Homo sapiens, UniProt Q09472).
T1 construct: host or cells: A549 P300 HiBit cells
As to the kind of experiment: P300 degradation, HiBit technology in A549 P300 HiBit cells (2 h). The format is cell-based. The note with it: 2 hrs post treatment; for Dmax: A549, A549 P300 HiBit cells; for DC50: A549 P300 HiBit cells. Summed up: (§1)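 A549 HiBiT knock-in cells seeded overnight at 37 °C, 5% CO2 in F-12K with 10% heat-inactivated FBS, then given serial dilutions of compound from 10 mM DMSO stocks. Lytic HiBiT detection reagent added for 10 min at room temperature; luminescence read. Potency and Dmax reported.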
On the technique in general: HiBiT is a short tag that completes a luciferase, so light tracks the accessible tagged protein.

The target of a further assay is T2, CBP (Homo sapiens, UniProt Q92793).
T2 construct: host or cells: A549 CBP HiBit cells
T2 sequence (Q92793 whole entry): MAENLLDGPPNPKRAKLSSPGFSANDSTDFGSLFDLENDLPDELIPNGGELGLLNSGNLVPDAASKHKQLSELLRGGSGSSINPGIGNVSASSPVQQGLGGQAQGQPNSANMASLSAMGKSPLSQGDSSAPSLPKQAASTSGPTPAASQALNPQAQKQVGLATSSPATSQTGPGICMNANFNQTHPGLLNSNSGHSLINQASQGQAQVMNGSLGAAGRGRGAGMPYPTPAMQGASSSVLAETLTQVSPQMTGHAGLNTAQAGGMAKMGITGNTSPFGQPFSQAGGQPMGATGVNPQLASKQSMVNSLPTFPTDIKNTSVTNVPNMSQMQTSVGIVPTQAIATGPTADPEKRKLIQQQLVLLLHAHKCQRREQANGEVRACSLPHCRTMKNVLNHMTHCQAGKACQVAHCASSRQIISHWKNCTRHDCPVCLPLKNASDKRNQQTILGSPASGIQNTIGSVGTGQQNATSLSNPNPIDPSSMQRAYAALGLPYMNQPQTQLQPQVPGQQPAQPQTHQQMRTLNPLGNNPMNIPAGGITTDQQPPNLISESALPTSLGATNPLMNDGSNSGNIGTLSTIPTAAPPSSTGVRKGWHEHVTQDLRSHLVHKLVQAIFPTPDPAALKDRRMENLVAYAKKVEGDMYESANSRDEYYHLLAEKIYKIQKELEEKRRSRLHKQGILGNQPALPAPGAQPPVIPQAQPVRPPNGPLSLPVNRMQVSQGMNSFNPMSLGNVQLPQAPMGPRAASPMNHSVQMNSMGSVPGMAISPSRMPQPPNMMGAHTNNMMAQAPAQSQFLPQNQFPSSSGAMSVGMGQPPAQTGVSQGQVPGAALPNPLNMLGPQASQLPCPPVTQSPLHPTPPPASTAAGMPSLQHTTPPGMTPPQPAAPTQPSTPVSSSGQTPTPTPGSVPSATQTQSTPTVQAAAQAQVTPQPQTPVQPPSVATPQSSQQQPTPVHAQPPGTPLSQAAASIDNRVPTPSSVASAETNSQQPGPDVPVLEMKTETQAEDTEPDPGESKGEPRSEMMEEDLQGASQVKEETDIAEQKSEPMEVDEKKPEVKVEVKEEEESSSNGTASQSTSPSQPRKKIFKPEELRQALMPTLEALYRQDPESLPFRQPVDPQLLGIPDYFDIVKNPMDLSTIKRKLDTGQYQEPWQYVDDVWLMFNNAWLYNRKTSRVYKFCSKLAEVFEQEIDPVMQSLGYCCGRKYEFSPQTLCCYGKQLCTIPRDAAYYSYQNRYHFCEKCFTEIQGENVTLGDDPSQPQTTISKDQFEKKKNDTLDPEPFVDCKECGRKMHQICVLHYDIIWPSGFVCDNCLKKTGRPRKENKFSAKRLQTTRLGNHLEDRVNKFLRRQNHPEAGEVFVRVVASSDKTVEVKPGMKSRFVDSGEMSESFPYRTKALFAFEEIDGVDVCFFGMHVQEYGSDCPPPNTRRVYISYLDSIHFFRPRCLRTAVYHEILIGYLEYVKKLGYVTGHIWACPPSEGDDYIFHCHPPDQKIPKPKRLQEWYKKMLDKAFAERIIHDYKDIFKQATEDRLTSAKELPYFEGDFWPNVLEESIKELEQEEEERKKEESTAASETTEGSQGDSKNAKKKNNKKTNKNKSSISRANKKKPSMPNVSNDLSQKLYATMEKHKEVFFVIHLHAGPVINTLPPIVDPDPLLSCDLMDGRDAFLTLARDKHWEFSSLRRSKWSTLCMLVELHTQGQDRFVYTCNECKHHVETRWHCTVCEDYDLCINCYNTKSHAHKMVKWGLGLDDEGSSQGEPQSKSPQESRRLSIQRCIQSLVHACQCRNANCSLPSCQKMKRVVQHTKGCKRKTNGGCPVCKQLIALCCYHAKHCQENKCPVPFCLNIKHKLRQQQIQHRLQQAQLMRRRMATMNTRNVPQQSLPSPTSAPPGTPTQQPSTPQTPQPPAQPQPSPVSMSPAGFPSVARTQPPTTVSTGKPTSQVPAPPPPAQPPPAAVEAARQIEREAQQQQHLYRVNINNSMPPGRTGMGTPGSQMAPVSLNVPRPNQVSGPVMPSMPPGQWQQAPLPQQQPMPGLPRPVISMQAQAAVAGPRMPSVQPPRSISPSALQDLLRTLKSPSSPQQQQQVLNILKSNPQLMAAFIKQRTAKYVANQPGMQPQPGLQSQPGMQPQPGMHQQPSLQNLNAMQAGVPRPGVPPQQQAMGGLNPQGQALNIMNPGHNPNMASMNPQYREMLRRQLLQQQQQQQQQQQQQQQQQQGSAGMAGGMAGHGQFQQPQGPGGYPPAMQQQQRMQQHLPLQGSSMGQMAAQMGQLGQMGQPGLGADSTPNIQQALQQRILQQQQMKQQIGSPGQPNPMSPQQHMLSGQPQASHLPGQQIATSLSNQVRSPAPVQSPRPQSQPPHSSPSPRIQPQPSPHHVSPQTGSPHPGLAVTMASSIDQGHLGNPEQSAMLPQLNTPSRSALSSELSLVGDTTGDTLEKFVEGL
As to the kind of experiment: CBP degradation, HiBit technology in A549 CBP HiBit cells (24 h). The format is cell-based. The note with it: 24 hrs post treatment. Summed up: as §1

T1 sequence (Q09472 whole entry): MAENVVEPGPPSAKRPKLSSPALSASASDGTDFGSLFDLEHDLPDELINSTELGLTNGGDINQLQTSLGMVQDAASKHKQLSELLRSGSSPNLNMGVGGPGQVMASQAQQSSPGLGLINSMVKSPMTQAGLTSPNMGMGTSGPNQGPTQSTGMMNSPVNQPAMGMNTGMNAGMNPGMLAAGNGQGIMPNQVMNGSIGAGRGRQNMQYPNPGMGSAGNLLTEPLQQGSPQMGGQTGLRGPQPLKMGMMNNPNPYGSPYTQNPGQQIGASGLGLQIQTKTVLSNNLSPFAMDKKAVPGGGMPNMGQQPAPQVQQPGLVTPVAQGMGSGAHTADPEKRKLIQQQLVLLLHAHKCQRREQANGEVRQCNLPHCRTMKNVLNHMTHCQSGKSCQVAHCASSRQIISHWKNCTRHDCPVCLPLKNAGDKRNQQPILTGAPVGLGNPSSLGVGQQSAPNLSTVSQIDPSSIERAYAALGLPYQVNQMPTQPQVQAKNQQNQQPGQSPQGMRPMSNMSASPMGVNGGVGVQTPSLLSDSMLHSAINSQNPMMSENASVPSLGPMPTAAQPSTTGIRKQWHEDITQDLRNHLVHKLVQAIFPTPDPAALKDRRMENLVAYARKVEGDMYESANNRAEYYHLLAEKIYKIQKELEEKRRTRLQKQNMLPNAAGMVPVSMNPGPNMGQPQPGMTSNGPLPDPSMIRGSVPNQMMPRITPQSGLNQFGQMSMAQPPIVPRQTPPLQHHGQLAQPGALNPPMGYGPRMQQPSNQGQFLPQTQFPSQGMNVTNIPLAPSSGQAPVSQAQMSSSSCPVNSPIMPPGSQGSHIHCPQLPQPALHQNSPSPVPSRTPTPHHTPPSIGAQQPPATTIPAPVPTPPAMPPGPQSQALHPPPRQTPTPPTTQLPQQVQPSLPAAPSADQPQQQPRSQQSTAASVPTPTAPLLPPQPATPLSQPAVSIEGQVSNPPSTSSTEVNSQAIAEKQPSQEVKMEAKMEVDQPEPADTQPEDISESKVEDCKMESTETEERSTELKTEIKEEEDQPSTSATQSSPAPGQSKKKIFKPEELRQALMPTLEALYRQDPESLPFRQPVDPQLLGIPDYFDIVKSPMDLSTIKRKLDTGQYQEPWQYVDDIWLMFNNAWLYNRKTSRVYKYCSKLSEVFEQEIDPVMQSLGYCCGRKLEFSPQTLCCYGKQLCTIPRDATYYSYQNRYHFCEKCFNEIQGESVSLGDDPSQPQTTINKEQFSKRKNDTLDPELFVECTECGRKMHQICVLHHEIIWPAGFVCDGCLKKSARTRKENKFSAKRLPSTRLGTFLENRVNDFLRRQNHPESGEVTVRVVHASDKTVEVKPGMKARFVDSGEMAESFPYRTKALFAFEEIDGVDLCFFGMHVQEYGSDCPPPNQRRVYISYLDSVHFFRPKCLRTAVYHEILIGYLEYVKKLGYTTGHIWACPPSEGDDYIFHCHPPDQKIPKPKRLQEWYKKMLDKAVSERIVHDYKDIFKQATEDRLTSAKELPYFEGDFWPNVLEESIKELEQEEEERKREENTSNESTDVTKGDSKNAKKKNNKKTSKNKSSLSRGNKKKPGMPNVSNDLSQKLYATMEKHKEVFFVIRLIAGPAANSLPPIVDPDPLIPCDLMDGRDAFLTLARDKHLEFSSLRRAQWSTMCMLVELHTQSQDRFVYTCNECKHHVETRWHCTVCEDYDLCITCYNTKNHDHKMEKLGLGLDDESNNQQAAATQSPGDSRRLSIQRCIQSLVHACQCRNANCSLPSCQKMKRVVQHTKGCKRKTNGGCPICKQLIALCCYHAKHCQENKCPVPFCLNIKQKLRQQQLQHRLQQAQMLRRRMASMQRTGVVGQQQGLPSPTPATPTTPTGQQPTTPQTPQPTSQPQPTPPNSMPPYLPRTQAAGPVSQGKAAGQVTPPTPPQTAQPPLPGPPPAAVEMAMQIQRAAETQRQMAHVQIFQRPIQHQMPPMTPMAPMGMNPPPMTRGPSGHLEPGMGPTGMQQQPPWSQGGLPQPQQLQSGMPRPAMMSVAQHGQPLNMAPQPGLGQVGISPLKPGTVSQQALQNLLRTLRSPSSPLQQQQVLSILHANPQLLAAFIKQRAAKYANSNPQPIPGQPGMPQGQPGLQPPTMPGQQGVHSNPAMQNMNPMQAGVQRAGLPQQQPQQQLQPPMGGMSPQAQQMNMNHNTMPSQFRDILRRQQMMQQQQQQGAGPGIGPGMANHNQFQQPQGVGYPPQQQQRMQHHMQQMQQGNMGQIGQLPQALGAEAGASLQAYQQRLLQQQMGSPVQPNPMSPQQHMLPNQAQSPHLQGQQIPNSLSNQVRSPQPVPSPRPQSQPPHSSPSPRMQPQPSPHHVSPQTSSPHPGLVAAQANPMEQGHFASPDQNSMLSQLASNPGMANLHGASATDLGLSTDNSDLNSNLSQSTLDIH

As a reminder, the Dmax is the largest share of the target that was removed. A low value points to shallow degradation. What is called DC50 is the midpoint of the concentration-degradation curve. Turning to `Cc1cc2c(N3CCOc4cc(-c5ccc(C(=O)NCC#Cc6ccc7occ(C8CCC(=O)NC8=O)c7c6)nc5)c(F)cc43)cc(N3CC(C)(O)C3)cc2n(C)c1=O` (stereo not drawn) [Example B63, N-(3-(3-(2,6-dioxopiperidin-3-yl)benzofuran-5-yl)prop-2-yn-1-yl)-5-(6-fluoro-4-(7-(3-hydroxy-3-methylazetidin-1-yl)-1,3-dimethyl-2-oxo-1,2-dihydroquinolin-5-yl)-3,4-dihydro-2H-benzo[b][1,4]oxazin-7-yl) picolinamide], at p300, the Dmax was more than 80% and the DC50 was in the range of 1 to 9.9 nM. At CBP, the DC50 lay in the range of 10 to 99 nM and the Dmax fell in the range of 20 to 39%.
On the same counts, the results for `Cc1cc2c(N3CCCc4cc(-c5ccc(C(=O)NCC#Cc6ccc7occ(C8CCC(=O)NC8=O)c7c6)nc5)nnc43)cc(C3CCOCC3)cc2n(C)c1=O` (stereo not drawn) [Example B64, 5-(8-(1,3-dimethyl-2-oxo-7-(tetrahydro-2H-pyran-4-yl)-1,2-dihydroquinolin-5-yl)-5,6,7,8-tetrahydropyrido[2,3-c]pyridazin-3-yl)-N-(3-(3-(2,6-dioxopiperidin-3-yl)benzofuran-5-yl)prop-2-yn-1-yl)picolinamide] are more than 80%, 1 to 9.9 nM, more than 1000 nM and less than 20%.
On the same counts, the results for `Cc1cc2c(-c3cccc4cc(-c5ccc(C(=O)NCC#Cc6ccc7occ(C8CCC(=O)NC8=O)c7c6)nc5)ncc34)nc(N3CC(O)C3)cc2n(C)c1=O` (stereo not drawn) [Example B66, N-(3-(3-(2,6-dioxopiperidin-3-yl)benzofuran-5-yl)prop-2-yn-1-yl)-5-(8-(7-(3-hydroxy-azetidin-1-yl)-1,3-dimethyl-2-oxo-1,2-dihydro-1,6-naphthyridin-5-yl)isoquinolin-3-yl) picolinamide] are more than 80%, less than 1 nM, more than 1000 nM and less than 20%.
On the same counts, the results for `Cc1cc2c(N3CCCc4nc(-c5ccc(C(=O)NCC#Cc6cc7c(C8CCC(=O)NC8=O)cccc7o6)nc5)ncc43)cccc2n(C)c1=O` (stereo not drawn) [Example B67, 5-(5-(1,3-dimethyl-2-oxo-1,2-dihydroquinolin-5-yl)-5,6,7,8-tetrahydropyrido[3,2-d]pyrimidin-2-yl)-N-(3-(4-(2,6-dioxopiperidin-3-yl)benzofuran-2-yl)prop-2-yn-1-yl)picolinamide] are more than 80%, less than 1 nM, 100 to 999 nM and less than 20%.
At p300, `Cc1cc2c(N3CCCc4nc(-c5ccc(C(=O)NCC#Cc6ccc7occ(C8CCC(=O)NC8=O)c7c6)nc5)ncc43)nc(N3CC(F)C3)cc2n(C)c1=O` (stereo not drawn) [Example B68, N-(3-(3-(2,6-dioxopiperidin-3-yl)benzofuran-5-yl)prop-2-yn-1-yl)-5-(5-(7-(3-fluoroazetidin-1-yl)-1,3-dimethyl-2-oxo-1,2-dihydro-1,6-naphthyridin-5-yl)-5,6,7,8-tetrahydropyrido [3,2-d]pyrimidin-2-yl)picolinamide] came in with a maximal degradation (Dmax) of 60 to 79% and a DC50 of 1 to 9.9 nM. On CBP, the DC50 was more than 1000 nM and the Dmax was less than 20%.
For `Cc1cc2c(N3CCCc4nc(-c5ccc(C(=O)NCC#Cc6ccc7occ(C8CCC(=O)NC8=O)c7c6)nc5)ncc43)cncc2n(C)c1=O` (stereo not drawn) [Example B69, 5-(5-(1,3-dimethyl-2-oxo-1,2-dihydro-1,7-naphthyridin-5-yl)-5,6,7,8-tetrahydropyrido [3,2-d]pyrimidin-2-yl)-N-(3-(3-(2,6-dioxo-piperidin-3-yl)benzofuran-5-yl)prop-2-yn-1-yl)picolinamide], in that order: 40 to 59%, 1 to 9.9 nM, more than 1000 nM and less than 20%.
On p300, `Cc1cc(-c2ncc3c(n2)CCCN3c2nc(N3CCOCC3)cc3c2cc(C)c(=O)n3C)cnc1C(=O)NCC#Cc1ccc2occ(C3CCC(=O)NC3=O)c2c1` (stereo not drawn) [Example B71, 5-(5-(1,3-dimethyl-7-morpholino-2-oxo-1,2-dihydro-1,6-naphthyridin-5-yl)-5,6,7,8-tetrahydropyrido[3,2-d]pyrimidin-2-yl)-N-(3-(3-(2,6-dioxopiperidin-3-yl)benzofuran-5-yl)prop-2-yn-1-yl)-3-methylpicolinamide] came in with a Dmax of more than 80% and a DC50 of 1 to 9.9 nM. On CBP, the DC50 was more than 1000 nM and the Dmax was less than 20%.
On the same counts, the results for `Cc1cc2c(N3CCCc4nc(-c5ccc(C(=O)NCC#Cc6ccc7occ([C@H]8CCC(=O)NC8=O)c7c6)nc5)ncc43)nc(N3CCOCC3)cc2n(C)c1=O` [Example B72, (R)-5-(5-(1,3-dimethyl-7-morpholino-2-oxo-1,2-dihydro-1,6-naphthyridin-5-yl)-5,6,7,8-tetrahydropyrido[3,2-d]pyrimidin-2-yl)-N-(3-(3-(2,6-dioxopiperidin-3-yl)benzofuran-5-yl)prop-2-yn-1-yl)picolinamide] are 60 to 79%, 1 to 9.9 nM, more than 1000 nM and less than 20%.
On the same counts, the results for `Cc1cc2c(N3CCCc4nc(-c5ccc(C(=O)NCC#Cc6ccc7occ([C@@H]8CCC(=O)NC8=O)c7c6)nc5)ncc43)nc(N3CCOCC3)cc2n(C)c1=O` [Example B73, (S)-5-(5-(1,3-dimethyl-7-morpholino-2-oxo-1,2-dihydro-1,6-naphthyridin-5-yl)-5,6,7,8-tetrahydropyrido[3,2-d]pyrimidin-2-yl)-N-(3-(3-(2,6-dioxopiperidin-3-yl)benzofuran-5-yl)prop-2-yn-1-yl)picolinamide] are more than 80%, 1 to 9.9 nM, more than 1000 nM and less than 20%.
With `Cc1cc2c(-c3cccc4cc(-c5ccc(C(=O)NCC#Cc6cc7c(C8CCC(=O)NC8=O)cccc7o6)nc5)ncc34)nc(N3CCOCC3)cc2n(C)c1=O` (stereo not drawn) [Example B74, 5-(8-(1,3-dimethyl-7-morpholino-2-oxo-1,2-dihydro-1,6-naphthyridin-5-yl)isoquinolin-3-yl)-N-(3-(4-(2,6-dioxopiperidin-3-yl)benzofuran-2-yl)prop-2-yn-1-yl)picolinamide], the values for the Dmax on p300 and at CBP were more than 80% and less than 20%, respectively. The DC50 was 1 to 9.9 nM on p300 and more than 1000 nM on CBP.
For `Cc1cc2c(N3CCCc4nc(-c5ccc(C(=O)NCC#Cc6ccc7occ(C8CCC(=O)NC8=O)c7c6)nc5)ncc43)cc(C3CCOCC3)nc2n(C)c1=O` (stereo not drawn) [Example B76, 5-(5-(6,8-dimethyl-7-oxo-2-(tetrahydro-2H-pyran-4-yl)-7,8-dihydro-1,8-naphthyridin-4-yl)-5,6,7,8-tetrahydropyrido[3,2-d]pyrimidin-2-yl)-N-(3-(3-(2,6-dioxopiperidin-3-yl)benzofuran-5-yl)prop-2-yn-1-yl)picolinamide], in that order: more than 80%, less than 20%, 1 to 9.9 nM and 100 to 999 nM.
On the same counts, the results for `Cc1cc2c(N3CCOc4cc(-c5ccc(C(=O)NCC#Cc6ccc7occ(C8CCC(=O)NC8=O)c7c6)nc5)ncc43)cccc2n(C)c1=O` (stereo not drawn) [Example B77, 5-(4-(1,3-dimethyl-2-oxo-1,2-dihydroquinolin-5-yl)-3,4-dihydro-2H-pyrido[4,3-b][1,4]oxazin-7-yl)-N-(3-(3-(2,6-dioxopiperidin-3-yl)benzofuran-5-yl)prop-2-yn-1-yl)picolinamide] are more than 80%, less than 20%, 1 to 9.9 nM and more than 1000 nM.
On the same counts, the results for `Cc1cc2c(N3CCCc4nc(-c5ccc(C(=O)NCC#Cc6cc7c(C8CCC(=O)NC8=O)cccc7s6)nc5)ncc43)cc(C3CCOCC3)cc2n(C)c1=O` (stereo not drawn) [Example B79, 5-(5-(1,3-dimethyl-2-oxo-7-(tetrahydro-2H-pyran-4-yl)-1,2-dihydroquinolin-5-yl)-5,6,7,8-tetrahydropyrido[3,2-d]pyrimidin-2-yl)-N-(3-(4-(2,6-dioxopiperidin-3-yl)benzo[b]thiophen-2-yl)prop-2-yn-1-yl)picolinamide] are more than 80%, less than 20%, 1 to 9.9 nM and more than 1000 nM.
On p300, `Cc1cc2c(N3CCCc4nc(-c5ccc(C(=O)NCC#Cc6cc7c(C8CCC(=O)NC8=O)nccc7s6)nc5)ncc43)cc(C3CCOCC3)cc2n(C)c1=O` (stereo not drawn) [Example B81, 5-(5-(1,3-dimethyl-2-oxo-7-(tetrahydro-2H-pyran-4-yl)-1,2-dihydroquinolin-5-yl)-5,6,7,8-tetrahydropyrido[3,2-d]pyrimidin-2-yl)-N-(3-(4-(2,6-dioxopiperidin-3-yl)thieno[3,2-c]pyridin-2-yl)prop-2-yn-1-yl)picolinamide] returned a Dmax of more than 80% and a half-maximal degradation concentration (DC50) of 1 to 9.9 nM. Further, at CBP, the DC50 was in the range of 10 to 99 nM and the Dmax fell in the range of 40 to 59%.
For `Cc1cc2c(N3CCCc4nc(-c5ccc(C(=O)NCC#Cc6cc7c(C8CCC(=O)NC8=O)cccc7o6)nc5)ncc43)cc(C3(F)CCOCC3)cc2n(C)c1=O` (stereo not drawn) [Example B82, N-(3-(4-(2,6-dioxopiperidin-3-yl)benzofuran-2-yl)prop-2-yn-1-yl)-5-(5-(7-(4-fluorotetrahydro-2H-pyran-4-yl)-1,3-dimethyl-2-oxo-1,2-dihydroquinolin-5-yl)-5,6,7,8-tetrahydropyrido [3,2-d]pyrimidin-2-yl)picolinamide], in that order: more than 80%, 1 to 9.9 nM, more than 1000 nM and less than 20%.

For the origin of these results see patent US20250114345A1, “COMPOUNDS AND COMPOSITIONS AS CBP/P300 DEGRADERS AND USES THEREOF” (Oncopia Therapeutics, Inc. d/b/a/ SK Life Science Labs, priority 2023, published 2025).
